Experimental data reported in patent US8383816B2, “Aryl-quinolyl compounds and their use” (Cancer Research Technology Limited, priority 2008, dated 2013).

How the values were obtained:
[1] = target: B-RAF (Homo sapiens, UniProt P15056, V600E); experiment: DELFIA Kinase Assay; type: biochemical; details: 100 μM ATP
Procedure: Biological Methods—DELFIA Kinase Assay
Compounds were assessed by a kinase assay performed according to the following protocol.
DELFIA Kinase Buffer (DKB):
DKB1 (DKB with B-RAF and MEK Protein):
Combine 4950 μL of DKB and 50 μL of 2.5 mg/ml GST-MEK stock (to give […] of MEK per 40 μL). Then add 22.5 μL of B-RAF to give ˜0.2 μL of B-RAF per 40 μL.
DKB2 (DKB with MEK Protein):
Combine 4950 μL of DKB and 50 μL of 2.5 mg/ml GST-MEK stock (to give 1 mg of MEK per 40 μL). Use 500 μL of this for the blow out (BO) and the empty vector (EV) control.
100 mM stock, dilute to 500 μM to give 100 μM final concentration in assay.
Inhibitors (Test Compounds):
Phospho-MEK½ CST #9121S diluted 1:1000 in DELFIA assay buffer (AB). Preincubate antibody in the AB for 30 minutes at room temperature prior to use.
Anti-rabbit-Eur labelled secondary Perkin Elmer #AD0105 diluted 1:1000 in DELFIA assay buffer (AB). Preincubate antibody in the AB for 30 minutes at room temperature prior to use. (Primary and secondary antibodies were incubated together.)
1. Preblock wells with 5% milk in TBS for 1 hour.
2. Wash wells with 3× with 200 μL TBS.
3. Plate out 40 μL of DKB1 for all inhibitors (test compounds), DMSO control, and optionally other control compounds.
4. Plate out 40 μL of DKB2 for BO and EV wells.
5. Add inhibitors (test compounds) at 0.5 μL per well according to desired plate layout.
6. Add 0.5 μL DMSO to vehicle control wells.
7. Add 2 μL of B-RAF to BO and EV wells.
8. Pre-incubate with inhibitors (test compounds) for 10 minutes at room temperature with shaking.
9. Add 10 μL of 500 μM ATP stock, in DKB, to give 100 μM assay concentration.
10. Seal plates with TopSeal and incubate at room temperature with shaking for 45 minutes.
11. Wash plates 3× with 200 μL 0.1% Tween20/Water to terminate reaction.
12. Add 50 μL per well of antibody mix and incubate for 1 hour at room temperature with shaking.
13. Wash plates 3× with 200 μL 0.1% Tween20/Water.
14. Add 100 μL DELFIA enhancement solution per well, cover in foil, and incubate at room temperature for 30 minutes with shaking.
15. Read on Victor using Europium protocol.
(§1) Values for the blank (Empty Vector) are subtracted from all values. The DMSO controls are set as 100% activity and assay points (the response) are calculated as a percentage of the DMSO control. Data are plotted using Graphpad Prism software and a non-linear regression line is calculated using a variable slope sigmoidal dose-response equation (Y=Bottom+(Top−Bottom)/(1+10^((LogEC50−X)*HillSlope)) where X is the logarithm of concentration. Y is the response). The IC50 generated by this procedure is the concentration of the drug that produces a percentage control fluorescence value midway between the saturation, and zero-effect plateaus. Three independent assays are usually performed and the mean IC50 is reported.

[2] = test system: pERK; experiment: Cell Based Phospho-ERK Assay; details: 6 h, cells incubated with test compound for 6 hours
Procedure: Biological Methods—Cell Based Phosho-ERK Assay
Compounds were assessed using a cell-based assay which was performed according to the following protocol.
Plate out 16,000 cells/well in 99 μL medium in a 96-well plate.
1. Add 1 μL inhibitor to the cells […].
2. Incubate the cells with test compound for 6 hours at 37° C.
3. Aspirate off the solution from all of the wells.
4. Fixate the cells with 100 μL 4% formaldehyde/0.25% Triton X-100 PBS per well.
5. Incubate the plate for 1 hour at 4° C.
6. Aspirate off the fixing solution and add 300 μL TBS per well.
7. Leave the plate overnight at 4° C.
1. Wash the plate 2× with 200 μL PBS per well.
2. Block with 100 μL 5% dried milk in TBS.
3. Incubate the plate for 20 minutes at 37° C.
4. Wash the plate 2× with 0.1% tween/H2O.
5. Add 50 μL of 3 μg/mL primary antibody pERK (Sigma M8159), diluted in 5% milk powder/TBS, to each well.
6. Incubate the plate for 2 hours at 37° C.
7. Wash the plate 3× with 0.1% tween/H2O.
8. Add 50 μL of 0.45 μg/mL secondary Europium-labelled anti-mouse antibody (Perkin Elmer) to each well.
9. Incubate the plate for 1 hour at 37° C.
10. Wash the plate 3× with 0.1% tween/H2O.
11. Add 100 μL enhancement solution (Perkin Elmer) to each well.
12. Leave the plate for approximately 10 minutes at room temperature before gently shaking the plate.
13. Read Europium Time Resolved Fluorescence in Victor2.
14. Wash the plate 2× with 0.1% tween/H2O.
15. Measure the protein concentration with BCA (Sigma) by adding 200 μL of solution per well.
16. Incubate the plate for 30 minutes at 37° C.
17. Read absorbance levels at 570 nm in a plate reader.
Note that Europium counts are normalised for protein levels by dividing counts by absorbance.
as §1, with “(no cells)” for “(Empty Vector)”

[3] = test system: WM266.4 melanoma cells; experiment: SRB Cell Proliferation Assay (SRB GI50); type: cell-based; details: Homo sapiens, WM 266-4, 144 h, 6 days growth
Procedure: Biological Methods—SRB Cell Proliferation Assay (SRB GI50)
Cultures of WM266.4 melanoma cells are routinely cultured in DMEM/10% foetal bovine serum, at 37° C., in 5% CO2 water saturated atmosphere. Cultures are maintained in exponential growth phase by sub-culturing before having become confluent (3-5 day intervals). Single cell suspensions are prepared by harvesting an 80 cm^2 tissue culture flask with 5 mL commercial trypsin EDTA. After 5 minutes, the detached cells are mixed with 5 mL fully complemented culture medium and centrifugally pelleted (1000 rpm for 7 minutes). After aspirating the supernatant, the cell pellet is re-suspended in 10 mL fresh medium and the cells fully disaggregated by drawing the whole volume up/down 5 times through a 19-gauge needle. The concentration of the cells is determined using a haemocytometer (1/10 dilution). A suitable volume to give at least a 2-fold excess for the number of tests being conducted, typically 100-200 mL, is prepared by diluting the cell suspension to 10,000/mL, and 100 μL/well dispensed into 96 well plates using a programmable 8-channel peristaltic pump, giving 1000 cells/well, leaving column 12 blank. The plates are returned to the incubator for 24 hours to allow the cells to re-attach.
The compounds being tested are prepared at 20 mM in dimethylsulphoxide. Aliquots (200 μL) are diluted into 20 mL culture medium giving 200 μM, and 10 serial dilutions of 3× performed by transferring 5 mL to 10 mL. Aliquots (100 μL) of each dilution are added to the wells, using an 8-channel pipettor, thus performing a final further 2× dilution, and giving doses ranging from 100 μM to 0.005 μM. Column 11 receives plain culture medium only. Each compound is tested in quadruplicate, each replicate being the average of four wells, and two plates per compound.
After a further 6 days growth, the plates are emptied, and the cells are fixed in 10% trichloroacteic acid for 10 minutes on ice. After thorough rinsing in running tap water, the plates are dried, and stained by adding 50 μL of a solution of 0.1% sulphorhodamine-B in 1% acetic acid, for 10 minutes at room temperature. The stain is poured out and the plates thoroughly rinsed under a stream of 1% acetic acid, thus removing unbound stain, and dried. The bound stain is taken into solution by addition of 150 μL Tris buffer pH 8, followed by 10 minutes on a plate-shaker (approximately 500 rpm). The absorbance at 540 nm in each well (being proportional to the number of cells present) is determined using a plate reader.
After averaging the results in rows A-D and E-H, the blank value (row 12) is subtracted, and results expressed as percentage of the untreated value (row 11). […] The GI50 generated by this procedure is the concentration of the drug that produces a percentage control A540 midway between the saturation, and zero-effect plateaus.

Sequence of B-RAF (P15056 whole entry V600E): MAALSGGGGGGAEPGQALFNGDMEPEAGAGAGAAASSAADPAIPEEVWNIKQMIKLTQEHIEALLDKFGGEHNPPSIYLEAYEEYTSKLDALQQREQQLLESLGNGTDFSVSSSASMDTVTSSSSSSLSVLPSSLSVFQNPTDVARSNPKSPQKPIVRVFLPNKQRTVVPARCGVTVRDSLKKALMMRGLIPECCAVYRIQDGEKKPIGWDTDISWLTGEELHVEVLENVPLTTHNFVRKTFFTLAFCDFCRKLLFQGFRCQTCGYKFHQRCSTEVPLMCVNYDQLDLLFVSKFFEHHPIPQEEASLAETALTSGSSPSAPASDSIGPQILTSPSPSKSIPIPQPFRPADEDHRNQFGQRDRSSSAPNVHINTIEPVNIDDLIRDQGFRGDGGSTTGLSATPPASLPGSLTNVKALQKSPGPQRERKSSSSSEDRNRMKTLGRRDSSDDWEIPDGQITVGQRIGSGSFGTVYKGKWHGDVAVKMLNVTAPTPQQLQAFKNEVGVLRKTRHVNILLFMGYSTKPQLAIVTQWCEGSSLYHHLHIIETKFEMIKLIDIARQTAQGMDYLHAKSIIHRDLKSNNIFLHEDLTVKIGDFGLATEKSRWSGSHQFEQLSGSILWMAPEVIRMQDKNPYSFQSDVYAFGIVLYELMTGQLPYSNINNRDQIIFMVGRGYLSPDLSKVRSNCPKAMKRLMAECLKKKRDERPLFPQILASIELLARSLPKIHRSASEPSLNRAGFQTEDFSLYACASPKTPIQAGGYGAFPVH

Row | IC50 [1] | IC50 [2] | GI50 [3] | Compound
1 | ≤ 1 µM | ≤ 10 µM | ≤ 10 µM | Cn1nc(C(C)(C)C)cc1NC(=O)Nc1ccc(Oc2ccnc3c2[nH]c(=O)n3C)c2cccnc12 [AA-017, 5-[(8-Amino-quinolinyl-5-oxy)carbonylamino-5-(1-methyl-3-t-butyl-imidazolyl)]-pyridin-[2,3]1-N-methylimidazol-2-one]
2 | ≤ 1 µM | ≤ 10 µM | ≤ 10 µM | CC(C)(C)c1cc(NC(=O)Nc2ccc(Oc3ccnc4[nH]c(=O)[nH]c34)c3cccnc23)n(-c2ccccc2)n1 [AA-005, 4-[(5-Oxy-quinolinyl-8-amino)carbonyl-amino-(1-N-phenyl-3-t-butyl-pyrazol-5-yl)]-pyridin-5,6-imidazolone]
3 | ≤ 1 µM | ≤ 10 µM | ≤ 10 µM | O=C(Nc1cccc(C(F)(F)F)c1)Nc1ccc(Oc2ccnc3[nH]c(=O)[nH]c23)c2cccnc12 [AA-008, 4-[(5-Oxy-quinolinyl-8-amino)carbonylamino-(3-trifluoromethyl-phenyl)]-pyridin-5,6-imidazolone]
4 | ≤ 1 µM | ≤ 10 µM | ≤ 10 µM | C#CCn1nc(C(C)(C)C)cc1NC(=O)Nc1ccc(Oc2ccnc3[nH]c(=O)cnc23)c2cccnc12 [BB-012]
5 | ≤ 1 µM | ≤ 10 µM | ≤ 10 µM | O=C(Nc1ccc(Cl)c(C(F)(F)F)c1)Nc1ccc(Oc2ccnc3[nH]c(=O)[nH]c23)c2cccnc12 [AA-007, 4-[(5-Oxy-quinolinyl-8-amino)carbonylamino-(3-trifluoromethyl-4-chloro-phenyl)]-pyridin-5,6-imidazolone]
6 | ≤ 1 µM | ≤ 10 µM | ≤ 10 µM | O=C(Nc1cc(C(F)(F)F)ccc1F)Nc1ccc(Oc2ccnc3[nH]c(=O)cnc23)c2cccnc12 [BB-005, 5-[(8-Amino-quinolinyl-5-oxy)carbonylamino-5-(2-fluoro-5-trifluoromethyl-phenyl)]-pyridin-[2,3]pyrazin-2-one]
7 | ≤ 1 µM | ≤ 10 µM | ≤ 10 µM | Cc1nc2c(Oc3ccc(NC(=O)Nc4cc(C(C)(C)C)nn4-c4ccccc4)c4ncccc34)ccnc2[nH]c1=O [BB-003, 5-[(8-Amino-quinolinyl-5-oxy)carbonylamino-5-(1-N-p-phenyl-3-t-butyl-imidazolyl)]-pyridin-[2,3]-3-methylpyrazin-2-one]
8 | ≤ 1 µM | ≤ 10 µM | ≤ 10 µM | CC(C)(C)c1cc(NC(=O)Nc2ccc(Oc3ccnc4[nH]c(=O)cnc34)c3cccnc23)n(-c2ccccc2)n1 [BB-008, 5-[(8-Amino-quinolinyl-5-oxy)carbonylamino-5-(1-N-phenyl-3-t-butyl-imidazolyl)]-pyridin-[2,3]pyrazin-2-one]
9 | ≤ 1 µM | ≤ 10 µM | ≤ 10 µM | Cn1c(=O)[nH]c2c(Oc3ccc(NC(=O)Nc4ccc(Cl)c(C(F)(F)F)c4)c4ncccc34)ccnc21 [AA-014, 5-[(8-Amino-quinolinyl-5-oxy)carbonylamino-3-(2-trifluoromethyl-3-chloro-phenyl)]-pyridin-[2,3]-N-methylimidazol-2-one]
10 | ≤ 1 µM | ≤ 10 µM | ≤ 10 µM | C=CCn1nc(C(C)(C)C)cc1NC(=O)Nc1ccc(Oc2ccnc3[nH]c(=O)c(C)nc23)c2cccnc12 [BB-009]
11 | ≤ 1 µM | ≤ 10 µM | ≤ 10 µM | O=C(Nc1cccc(SC(F)(F)F)c1)Nc1ccc(Oc2ccnc3[nH]c(=O)[nH]c23)c2cccnc12 [AA-009, 4-[(5-Oxy-quinolinyl-8-amino)carbonylamino-(3-trifluoromethylthio-phenyl)]-pyridin-5,6-imidazolone]
12 | ≤ 1 µM | ≤ 10 µM | ≤ 10 µM | Cn1c(=O)[nH]c2c(Oc3ccc(NC(=O)Nc4cccc(C(C)(C)C)c4)c4ncccc34)ccnc21 [AA-018, 5-[(8-Amino-quinolinyl-5-oxy)carbonylamino-3-(t-butyl-phenyl)]-pyridin-[2,3]1-N-methylimidazol-2-one]
13 | ≤ 1 µM | ≤ 10 µM | ≤ 10 µM | Cc1ccc(-n2nc(C(C)(C)C)cc2NC(=O)Nc2ccc(Oc3ccnc4[nH]c(=O)cnc34)c3cccnc23)cc1 [BB-007, 5-[(8-Amino-quinolinyl-5-oxy)carbonylamino-5-(1-N-p-tolyl-3-t-butyl-imidazolyl)]-pyridin-[2,3]pyrazin-2-one]
14 | ≤ 1 µM | ≤ 10 µM | ≤ 10 µM | C#CCn1nc(C(C)(C)C)cc1NC(=O)Nc1ccc(Oc2ccnc3[nH]c(=O)c(C)nc23)c2cccnc12 [BB-011]
